{"source": "patent US7087392B2", "about": "“Antiproliferative SgK reagents and methods” (The Regents of the University of California, priority 1999, dated 2006)", "molecules": {"B1": {"name": "N60–431: N-terminal truncated Sgk (protein, UniProt O00141 60-431, looked up, fragment)", "chain": "ISQPQEPELMNANPSPPPSPSQQINLGPSSNPHAKPSDFHFLKVIGKGSFGKVLLARHKAEEVFYAVKVLQKKAILKKKEEKHIMSERNVLLKNVKHPFLVGLHFSFQTADKLYFVLDYINGGELFYHLQRERCFLEPRARFYAAEIASALGYLHSLNIVYRDLKPENILLDSQGHIVLTDFGLCKENIEHNSTTSTFCGTPEYLAPEVLHKQPYDRTVDWWCLGAVLYEMLYGLPPFYSRNTAEMYDNILNKPLQLKPNITNSARHLLEGLLQKDRTKRLGAKDDFMEIKSHVFFSLINWDDLINKKITPPFNPNVSGPNDLRHFDPEFTEEPVPNSIGKSPDSVLVTASVKEAAEAFLGFSYAPPTDSFL"}, "B2": {"name": "T256D/S422D: Sgk double mutation T256D and S422D (protein, UniProt O00141 1-431, looked up, variant T256D S422D)", "Serine/threonine-protein …": "MTVKTEAAKGTLTYSRMRGMVAILIAFMKQRRMGLNDFIQKIANNSYACKHPEVQSILKISQPQEPELMNANPSPPPSPSQQINLGPSSNPHAKPSDFHFLKVIGKGSFGKVLLARHKAEEVFYAVKVLQKKAILKKKEEKHIMSERNVLLKNVKHPFLVGLHFSFQTADKLYFVLDYINGGELFYHLQRERCFLEPRARFYAAEIASALGYLHSLNIVYRDLKPENILLDSQGHIVLTDFGLCKENIEHNSTTSDFCGTPEYLAPEVLHKQPYDRTVDWWCLGAVLYEMLYGLPPFYSRNTAEMYDNILNKPLQLKPNITNSARHLLEGLLQKDRTKRLGAKDDFMEIKSHVFFSLINWDDLINKKITPPFNPNVSGPNDLRHFDPEFTEEPVPNSIGKSPDSVLVTASVKEAAEAFLGFDYAPPTDSFL"}, "B3": {"name": "S422A: Sgk with serine 422 changed to alanine (protein, UniProt O00141 1-431, looked up, variant S422A)", "Serine/threonine-protein …": "B2 Serine/threonine-protein … with D256T, D422A"}, "B4": {"name": "T256A: Sgk with threonine 256 in the activation loop changed to alanine (protein, UniProt O00141 1-431, looked up, variant T256A)", "Serine/threonine-protein …": "B2 Serine/threonine-protein … with D256A, D422S"}, "B5": {"name": "T256D: Sgk with threonine 256 changed to aspartate (protein, UniProt O00141 1-431, looked up, variant T256D)", "Serine/threonine-protein …": "B2 Serine/threonine-protein … with D422S"}, "B6": {"name": "S422D: Sgk with serine 422 changed to aspartate (protein, UniProt O00141 1-431, looked up, variant S422D)", "Serine/threonine-protein …": "B2 Serine/threonine-protein … with D256T"}, "B7": {"name": "C1–355: C-terminal Sgk truncation missing the last 75 amino acids (protein, UniProt O00141 1-355, looked up, fragment)", "chain": "MTVKTEAAKGTLTYSRMRGMVAILIAFMKQRRMGLNDFIQKIANNSYACKHPEVQSILKISQPQEPELMNANPSPPPSPSQQINLGPSSNPHAKPSDFHFLKVIGKGSFGKVLLARHKAEEVFYAVKVLQKKAILKKKEEKHIMSERNVLLKNVKHPFLVGLHFSFQTADKLYFVLDYINGGELFYHLQRERCFLEPRARFYAAEIASALGYLHSLNIVYRDLKPENILLDSQGHIVLTDFGLCKENIEHNSTTSTFCGTPEYLAPEVLHKQPYDRTVDWWCLGAVLYEMLYGLPPFYSRNTAEMYDNILNKPLQLKPNITNSARHLLEGLLQKDRTKRLGAKDDFMEIKSHVFF"}}, "key": {"endogenous Sgk": {"system": "endogenous Sgk", "test": "Phosphorylation state of Sgk in treated cells", "assay_type": "cell-based", "conditions": "treatment of cells; serum stimulated mammary tumor cells for the PI 3-kinase inhibitors", "from_the_text": "(§1) Cotransfection of PDK1 with Sgk caused a 6-fold activation of Sgk activity, whereas, the kinase-dead form of PDK1 had no effect. […] The Ser-78 in the amino terminal domain is a third phosphorylation site and expression of the S78G Sgk mutation ablates the presence of the slowest migrating form of phosphorylated Sgk in SDS polyacrylamide gels."}, "Sgk": {"system": "Sgk", "test": "In vitro peptide kinase assay (Sgktide, [32P]ATP) of immunoprecipitated HA-Sgk", "assay_type": "biochemical", "conditions": "for effect of cell treatment on Sgk enzymatic activity: activators or inhibitor of PI 3-kinase pathway; for kinase activity / activation of Sgk mutant: mutant forms of Sgk", "from_the_text": "Sgk is a component of the PI3 kinase cascade and is directly activated by PDK1 mediated phosphorylation of threonine 256 in the activation loop. […] To develop this kinase assay, lysates from human embryo kidney 293 cells transfected to express wild type hemagglutinin (HA)-tagged Sgk (HA-Sgk) were isolated and the Sgk immunoprecipitated with HA antibodies was used to screen a synthetic peptide library for identifying potential Sgk substrates. The immunoprecipitates were extensively washed, and incubated with the peptide in the presence of [^32P]ATP in kinase buffer (Park et al 1999). Sgk phosphorylated several peptides, and the best substrate for Sgk was KKRNRRLSVA (SEQ ID NO:01), which is named Sgktide. […] This substrate specificity is generally similar to, but not identical, with the substrate specificity for Akt, which is a well characterized down stream component of the PI 3 kinase pathway.\nas §1"}, "Sgk and Erk/MAPK": {"system": "Sgk and Erk/MAPK", "test": "Subcellular localization of Sgk and Erk/MAPK in mammary tumor cells", "assay_type": "cell-based", "conditions": "MEK inhibitor treatment", "from_the_text": "Sgk/MAPK interactions: new level of cross talk between GR and phosphorylation cascades. We also observed that the enzymatic activity and subcellular localization of Sgk and the Erk1/Erk2 members of the Mitogen Activated Protein Kinase (MAPK) gene family are co-regulated in a stimulus-dependent manner. […] Wild type or kinase dead forms of Sgk can be co-immunoprecipitated with Erk/MAPK from either serum- or dexamethasone-treated mammary tumor cells. […] Conversely, the forced cellular localization of ectopically expressed Sgk into the nucleus, using the NLS-Sgk, or into the cytoplasmic compartment using the wild type sgk gene, caused Erk/MAPK to co-localize with Sgk."}, "Sgk promoter": {"system": "Sgk promoter", "test": "Hyperosmotic stress stimulation of Sgk promoter and Sgk protein production", "assay_type": "cell-based, mouse", "conditions": "sorbitol hyperosmotic stress", "from_the_text": "Regulation of Sgk transcription, protein utilization and enzymatic activity defines a new cellular component of the hyperosmotic stress pathway. Using mouse NMuMg nontumorigenic mammary epithelial cells, we have established that Sgk is a new component of the hyperosmotic stress response. (The key observations can be repeated in HeLa cells, MCF-7 human breast cancer cells, kidney derived cell and rat fibroblasts). […] This hyperosmotic stress regulated element can confer the hyperosmotic stress response to a heterologous promoter. […] Using a generally similar series of experiments, we have also shown that exposure of mammary epithelial cells to 40 J/m^2 UV radiation causes a rapid but transient stimulation in Sgk protein levels that peaks approximately 2 hours after this genotoxic stress.\nThe hyperosmotic stress cascade targets the sgk promoter by activating the p38/MAPK stress kinase. […] Co-transfection of the stress responsive Sgk-CAT reporter plasmid with a dominant negative form of MKK3, one of two upstream kinase regulators of the p38/MAPK, inhibits the sorbitol induction of the Sgk promoter."}, "mammary tumor cells": {"system": "mammary tumor cells", "test": "Transient cell foci growth assay of transfected mammary tumor cells", "assay_type": "cell-based", "conditions": "transfected expression vector", "from_the_text": "Functional evidence for a direct role of sgk in the glucocorticoid anti-proliferative pathway. In both the Con8 mammary epithelial tumor cells (from which Sgk was originally cloned) as well as human MCF-7 breast cancer cells (which were originally derived from a pleural effusion of a metastatic human breast adenocarcinoma) glucocorticoids induce a G1 block in cell cycle progression and strongly stimulate sgk transcript and protein production. […] To initially test whether Sgk has an anti-proliferative function and perhaps mediates the glucocorticoid growth inhibitory response, the full length rat or human wild type sgk cDNA was inserted downstream of the cytomegalovirus (CMV) promoter in an expression vector that also encodes the neomycin resistance gene. […] Transfection competent cells were selected in 0.5 mg/ml of the G418 neomycin derivative for two weeks.\nExpression vectors encoding several point mutants or truncations of Sgk were transfected into the mammary tumor cells and cell growth monitored by the cell foci assay.\nTransient transfection and rapid screen of the sgk expression vectors for the anti-proliferative response in rodent and human mammary tumor cells. A transient cell foci growth assay is employed to rapidly screen the various Sgk constructs to define the domains that mediate the anti-proliferative response in rat and human mammary tumor cells using our optimized conditions. The advantage of this assay is that many different mutant Sgk expression vectors can be simultaneously compared for their growth inhibitory effects. Also, this assay can be used to rapidly assess the proliferative effects of combinations of Sgk and its interacting proteins or substrates. Populations of human MCF-7 breast cancer cells or rat Con8 mammary tumor cells are transfected by the lipofectin transfection procedures and cultured in normally cytotoxic concentrations (750 μg/ml) of the G418 neomycin derivative to recover transfection competent cells. Approximately 5000 transfected cells are cultured as colonies on plastic, and after one to two weeks are fixed and stained in crystal violet/formalin to visualize the cell colonies. The effects on cell proliferation are quantitated by simply counting the resulting cell colonies or by scanning the total cell density on each plate. To provide a control for the fidelity of the cell foci assays, in each experiment, cells transfected with the control vectors (no Sgk sequences) are treated with or without 1 μM dexamethasone because the cells are growth suppressed by this synthetic glucocorticoid. […]"}}, "note": "Where a chain is given by its changes, count along the chain named. In names and notes the source's numbering stands."}
{"molecule": "C=C1[C@@H](O)[C@@H]2O[C@]3(CC[C@H](/C=C/[C@@H](C)[C@@H]4CC(C)=C[C@@]5(O[C@H](C[C@@](C)(O)C(=O)O)CC[C@H]5O)O4)O3)CC[C@H]2O[C@@H]1[C@@H](O)C[C@H](C)[C@H]1O[C@@]2(CCCCO2)CC[C@H]1C", "note": "[okadaic acid]", "values": [{"measurement": "generation of hyperphosphorylated form of Sgk", "setting": "endogenous Sgk", "result": "generates a hyperphosphorylated active Sgk"}]}
{"molecule": "IGF-1: hormonal activator of the PI 3-kinase pathway [reference compound]", "values": [{"measurement": "effect of cell treatment on Sgk enzymatic activity", "setting": "Sgk", "result": "stimulated Sgk enzymatic activity"}]}
{"molecule": "COc1cccc(-c2cc(=O)c3ccccc3o2)c1N", "note": "[PD98059]", "values": [{"measurement": "subcellular distribution of Sgk and Erk/MAPK", "setting": "Sgk and Erk/MAPK", "result": "caused both Sgk and Erk/MAPK to localize to the cytoplasm"}]}
{"molecule": "C[S+]([O-])c1ccc(-c2nc(-c3ccncc3)c(-c3ccc(F)cc3)[nH]2)cc1", "note": "(centres unmarked) [SB203580]", "values": [{"measurement": "hyperosmotic stress-stimulation of the Sgk promoter and Sgk protein production", "setting": "Sgk promoter", "result": "dampens the hyperosmotic stress-stimulation of the Sgk promoter and Sgk protein production"}]}
{"molecule": "insulin: hormonal activator of the PI 3-kinase pathway [reference compound]", "values": [{"measurement": "effect of cell treatment on Sgk enzymatic activity", "setting": "Sgk", "result": "stimulated Sgk enzymatic activity"}]}
{"molecule": "Oc1ccc(-c2nc(-c3ccncc3)c(-c3ccc(F)cc3)[nH]2)cc1", "note": "[SB202190]", "values": [{"measurement": "hyperosmotic stress-stimulation of the Sgk promoter and Sgk protein production", "setting": "Sgk promoter", "result": "dampens the hyperosmotic stress-stimulation of the Sgk promoter and Sgk protein production"}]}
{"molecule": "pervanadate [reference compound]", "values": [{"measurement": "effect of cell treatment on Sgk enzymatic activity", "setting": "Sgk", "result": "stimulated Sgk enzymatic activity"}]}
{"molecule": "B1", "values": [{"measurement": "effect on cell growth (cell foci assay)", "setting": "mammary tumor cells", "result": "more effectively suppresses tumor cell growth compared to the full length Sgk protein"}]}
{"molecule": "B2", "values": [{"measurement": "kinase activity / activation of Sgk mutant", "setting": "Sgk", "result": "not constitutively active"}]}
{"molecule": "B3", "values": [{"measurement": "kinase activity / activation of Sgk mutant", "setting": "Sgk", "result": "inhibited Sgk activation"}]}
{"molecule": "B4", "values": [{"measurement": "reduction in number of cell foci compared to the vector control", "setting": "mammary tumor cells; G418 selection", "result": 20, "unit": "fold"}]}
{"molecule": "B5", "values": [{"measurement": "kinase activity / activation of Sgk mutant", "setting": "Sgk", "result": "partially active"}]}
{"molecule": "B6", "values": [{"measurement": "kinase activity / activation of Sgk mutant", "setting": "Sgk", "result": "partially active"}]}
{"molecule": "B7", "values": [{"measurement": "effect on cell growth (cell foci assay)", "setting": "mammary tumor cells", "result": "little or no effect on cell growth"}]}
